Source: patent US20250262241A1, “METHODS TO IMPROVE STABILITY OF VIRUS TRANSDUCTION OF y8 T CELLS AND APPLICATIONS THEREOF” (UNICET BIOTECH CO. LLC., priority 2021, published 2025)
pIC50: −log10 of the molar value. “And” between values parts separate entries of the source, which are not always exact repeats. Identical values can stand only once.

Columns and labels:
γδ2 T cells [1] = experiment: Exhausted marker expression of γδ2 T cells cultured with/without BX795; format: cell-based, human
Experimental: (§1) Wash the cells once with PBS and then staining the cells with antibodies diluted in FACS buffer (PBS+1% FBS+2.5 mM EDTA) at 4° C. for 30 min. The common volume of incubated buffer was 50 μL for 2×10^cells.
(§2) After incubation, washed the cells with FACS buffer two times and then resuspended the cells in 200 ul FACS buffer and calculated the data by FACSCalibur (BD Biosciences). The antibodies used for γδ2 T cells were: APC anti-human CD3 (Biolegend, 300412), BV421 anti-human TCR Vδ2 (Biolegend, 331428).

γδ1 T cells = experiment: CAR related lentivirus transduction of γδ1 T cells with small inhibitors; format: cell-based, human; settings: 0.06 uM; control finally around 2%
Experimental: (§3) For lentivirus transduction, 1×10^CFU lentivirus diluted in 200 ul PBS were added in a 24-well plate which were pre-coated with RetroNectin reagent (Takara) and centrifugated by 2,000 g for 2 hours at 32° C. After centrifugation, removed the supernatant and washed the plate with PBS three times slightly.
(§4) The plates were incubated at 37° C., 5% CO2.
To test the application of these small molecule on improving the transduction rate of δδ1 T cells. We evaluated the transduction rate of δδ1 T cells with/without different dosage of small molecules.

PDK1 = molecular target: T1, PDK1 (Homo sapiens, UniProt O15530); settings: cited from earlier work
T1 sequence (O15530 1-556): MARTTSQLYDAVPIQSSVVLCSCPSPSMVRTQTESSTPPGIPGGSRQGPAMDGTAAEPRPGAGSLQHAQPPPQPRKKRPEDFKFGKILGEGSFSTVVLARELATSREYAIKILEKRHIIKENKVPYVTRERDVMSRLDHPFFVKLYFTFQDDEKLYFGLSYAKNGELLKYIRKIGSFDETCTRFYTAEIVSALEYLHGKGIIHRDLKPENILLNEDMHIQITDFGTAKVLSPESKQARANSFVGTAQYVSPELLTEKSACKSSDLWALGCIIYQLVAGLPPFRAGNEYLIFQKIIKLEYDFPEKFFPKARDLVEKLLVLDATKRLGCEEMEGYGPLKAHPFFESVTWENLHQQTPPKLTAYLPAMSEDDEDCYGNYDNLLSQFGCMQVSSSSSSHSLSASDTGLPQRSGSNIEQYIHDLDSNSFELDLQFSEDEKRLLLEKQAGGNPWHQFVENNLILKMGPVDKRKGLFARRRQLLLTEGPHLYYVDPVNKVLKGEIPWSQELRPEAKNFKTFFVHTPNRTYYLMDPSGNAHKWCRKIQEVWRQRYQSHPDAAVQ

[2] = test system: γδ T cell products cultured from PBMC; format: cell-based, human; settings: 0.6 μM BX795, after 12 Days in vitro culture
Experimental: as §1, §2
The calculated cell types included γδ2 T, γδ2 CD56+ T, γδ1 T, αβT, NKT, T helper, cytotoxic T, B and NK cells.

γδ2 T cells [3] = experiment: Lentivirus (GFP) transduction of γδ2 T cells with or without BX795; format: cell-based, human
Experimental: VSV-G pseudotyped lentiviral vectors were applied in this method. 1×10^7 293T cells were plated into a poly-D-lysine coated 100 mm dish. Next day the cells were transfected with 6 μg of pCDH-EF1-MCS-T2A-copGFP plasmid (Addgene, Plasmid #72263) or pCDH-EF1-CAR-T2A-copGFP plasmid modified from pCDH-EF1-MCS-T2A-copGFP, 4 μg of pspAx2 (Addgene, Plasmid #12260), 2 μg of pCMV-VSV-G (Addgene, Plasmid #8454) using 30 ug PEI transfection regents. After 8 hours of transfection, the cell culture medium was changed. The supernatant were collected 48 hours and 72 hours later. Concentrated the virus with Lenti-X™ Concentrator (Takara) and monitored the virus titers by transduction of 293T cells and stored the concentrated virus in −80° C. until further use.
as §3, §4, §2

γδ2 T cells [4] = experiment: Differentiation of γδ2 T cells cultured with/without BX795 (flow cytometry); format: cell-based, human
Experimental: as §1, §2
On the other hand, the terminator γδ2 T cell percentage decreased from 2.595% to around 2%.

TBK1 = molecular target: T2, TBK1 (Homo sapiens, UniProt Q9UHD2); settings: cited from earlier work
T2 sequence (Q9UHD2 1-729): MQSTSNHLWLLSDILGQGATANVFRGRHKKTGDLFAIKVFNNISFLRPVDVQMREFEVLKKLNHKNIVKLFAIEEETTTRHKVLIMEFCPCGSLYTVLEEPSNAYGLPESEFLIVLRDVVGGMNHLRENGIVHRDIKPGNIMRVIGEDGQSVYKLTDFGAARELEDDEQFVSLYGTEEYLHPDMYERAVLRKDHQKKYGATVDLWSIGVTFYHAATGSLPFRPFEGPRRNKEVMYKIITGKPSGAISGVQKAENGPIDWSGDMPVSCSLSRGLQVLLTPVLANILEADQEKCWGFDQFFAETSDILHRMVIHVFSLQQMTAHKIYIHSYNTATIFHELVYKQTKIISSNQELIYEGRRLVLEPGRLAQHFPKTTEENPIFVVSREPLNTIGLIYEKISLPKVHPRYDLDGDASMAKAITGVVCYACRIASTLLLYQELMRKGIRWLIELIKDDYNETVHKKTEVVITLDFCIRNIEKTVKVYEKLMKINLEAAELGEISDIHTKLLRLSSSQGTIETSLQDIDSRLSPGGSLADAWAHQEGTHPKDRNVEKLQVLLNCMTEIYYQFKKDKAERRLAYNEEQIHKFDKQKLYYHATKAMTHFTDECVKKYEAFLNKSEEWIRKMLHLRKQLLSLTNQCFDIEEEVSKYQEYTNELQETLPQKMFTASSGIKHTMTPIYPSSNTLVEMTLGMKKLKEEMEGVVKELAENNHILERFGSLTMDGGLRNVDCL

BX795
cell percentage of exhausted cell types (PD-1, LAG-3, TIGIT, TIM-3) (γδ2 T cells [1]; BX795 treatment vs control): improved the cell percentage of all the exhausted cell types slightly | γδ2 LAG-3+ T cell (CD3+TCRVδ2+LAG-3+), cell percentage of total lymphocytes (γδ2 T cells [1]; cultured with BX795): 85.58% and 85.77% | γδ2 PD-1+ T cell (CD3+TCRVδ2+PD-1+), cell percentage of total lymphocytes (γδ2 T cells [1]; cultured with BX795): 11.83% and 11.17% | γδ2 T cell (CD3+TCRVδ2+), cell percentage of total lymphocytes (γδ2 T cells [1]; cultured with BX795): 85.75% and 85.94% | γδ2 TIGIT+ T cell (CD3+TCRVδ2+TIGIT+), cell percentage of total lymphocytes (γδ2 T cells [1]; cultured with BX795): 23.24% and 26.98% | γδ2 TIM-3+ T cell (CD3+TCRVδ2+TIM-3+), cell percentage of total lymphocytes (γδ2 T cells [1]; cultured with BX795): 84.55% and 84.91% | effect on transduction rate of γδ1 T cells (γδ1 T cells): could improve the transduction rate | pIC50 (PDK1): 8.22 | B cell (CO3−TCRVδ2−CD19+), cell percentage of total lymphocytes [2]: 0.27% and 0.32% | NK cell (CD3−TCRVδ2−CD56+), cell percentage of total lymphocytes [2]: 2.66% and 2.20% | NKT cell (CD3+TCRVδ2−TCRVδ1−TCRαβ+CD56+), cell percentage of total lymphocytes [2]: 0.34% and 0.31% | T helper cell (CD3+TCRVδ2−TCRVδ1− TCRαβ+CD56−CD8−CD4+), cell percentage of total lymphocytes [2]: 5.26% and 5.40% | cell types of the final γδ T cell products vs control group [2]: comparable cell types with the control group | αβ T cell (CD3+TCRVδ2−TCRVδ1−TCRαβ+), cell percentage of total lymphocytes [2]: 7.22% and 7.20% | γδ2 CD56+ T cell (CD3+TCRVδ2+ CD56+), cell percentage of total lymphocytes [2]: 1.89% and 1.69% | γδ2 T cell (CD3+TCRVδ2+), cell percentage of total lymphocytes [2]: 85.93% and 86.52% | total positive transduced γδ2 T cells (γδ2 T cells [3]; 0.2 μM or 0.6 μM BX795): greatly increased | final transduction rate, 2 μM compared with 0.6 μM BX795 (γδ2 T cells [3]; 2 μM BX795): not significant | cell number of transduced γδ2 T cells (γδ2 T cells [3]; 2 μM or 6 μM BX795, vs control group): lower than the control group | changes in differentiation of γδ2 T cell subtypes (γδ2 T cells [4]; BX795 treatment vs control): No significant changes were found | central memory γδ2 T cells percentage rate (γδ2 T cells [4]; adding BX795, control 1.865%): 4.225% | terminator γδ2 T cell percentage (γδ2 T cells [4]; adding BX795, control 2.595%): around 2% | Central memory γδ2 cell (CD3+TCRVδ2+ CD27+CD45RA−), cell percentage of total lymphocytes (γδ2 T cells [4]; cultured with BX795): 3.88% and 4.57% | Effector γδ2 T cell (CD3+TCRVδ2+ CD27−CD45RA−), cell percentage of total lymphocytes (γδ2 T cells [4]; cultured with BX795): 81.23% and 80.00% | Terminator γδ2 T cell (CD3+TCRVδ2+ CD27−CD45RA+), cell percentage of total lymphocytes (γδ2 T cells [4]; cultured with BX795): 1.91% and 2.03% | naive γδ2 T cell (CD3+TCRVδ2+ CD27+CD45RA+), cell percentage of total lymphocytes (γδ2 T cells [4]; cultured with BX795): 0.25% and 0.10% | γδ2 CD226+T cell (CD3+TCRVδ2+CD226+), cell percentage of total lymphocytes (γδ2 T cells [4]; cultured with BX795): 87.25% and 86.59% | γδ2 NKG2D+T cell (CD3+TCRVδ2+NKG2D+), cell percentage of total lymphocytes (γδ2 T cells [4]; cultured with BX795): 87.17% and 86.50% | γδ2 T cell (CD3+TCRVδ2+), cell percentage of total lymphocytes (γδ2 T cells [4]; cultured with BX795): 87.25% and 86.68% | pIC50 (TBK1): 8.22
